What was measured:
[1] = biological target: T1, purified 11β-HSD1 (recombinant, expressed in E. coli) (Homo sapiens, UniProt P28845); experiment: Inhibition of purified 11β-HSD1, Scintillation Proximity Assay; format: biochemical; conditions: recombinant enzyme, 3H cortisone, NADPH, room temperature
T1 construct: made in house; host or cells: E. coli
Protocol: (§1) The inhibition of purified 11β-HSD1 by compounds of Formula I was measured as follows using a Scintillation Proximity Assay. All reactions were carried out at room temperature in 96 well flexible Microbeta reaction plates. The assay begins by adding 1 microliter of a 0.1 mM solution of a compound of Formula I in DMSO previously diluted in half-log increments (8 points) starting at 1 micromolar final concentration. To this dot was added 50 microliters of substrate solution (50 mM HEPES, pH 7.4, 100 mM KCl, 5 mM NaCl, 2 mM MgCl2 containing […] of ^3H cortisone, 1 mM NADPH). After a 10 minute incubation, 50 microliters of enzyme solution containing 20 nM recombinant 11β-HSD1 (expressed in E. coli, and affinity purified) was added, The reaction was incubated for 90 minutes, and stopped by adding 50 microliters of SPA bead mix (18-β-glycyrrhetinic acid, 10 micromolar final, 5 mg/ml protein A coated YSi SPA beads, and 1-microgram/ml alpha-cortisol antibody (East Coast Biologics). The plate shaken for 120 minutes, and the radioactivity corresponding to ^3H cortisol was measured on a Wallac Microbeta.

[2] = biological target: T2, 11β-HSD1 in whole cells (omental adipocytes) (Homo sapiens, UniProt P28845); experiment: Inhibition of 11β-HSD1 in whole cells (omental adipocytes), cortisone to cortisol conversion, SPA; format: cell-based; conditions: 100 nM [3H] cortisone, 37 degrees C
T2 construct: host or cells: omental adipocytes differentiated from preadipocytes
Protocol: The inhibition of 11β-HSD1 by compounds of Formula I in whole cells was measured as follows. Omental adipocytes cultured in 96-well plates were purchased from Zen-Bio, Inc. and used at least two weeks after differentiation from precursor preadipocytes started in medium supplemented with adipogenic and lipogenic hormones (human insulin, dexamethasone, isobutylmethylxanthine and PPAR-gamma agonist). The cells were maintained in full adipocyte medium (DMEM/Ham's F-12 (1:1, v/v), HEPES pH 7.4, fetal bovine serum, penicillin, streptomycin and Amphotericin B, supplied by Zen-Bio, Inc.) at 37 degrees C., 5% CO2 and transferred into serum-free, phenol red free medium for overnight incubation. The assay was performed in a total volume of 200 microliters. The cells were pre-incubated with serum-free, phenol red free medium containing 0.1% (v/v) of DMSO and various concentrations of compounds of Formula I at least 1 h before [^3H] cortisone in ethanol (50 Ci/mmol, ARC, Inc.) was added to achieve final concentration of cortisone of 100 nM. The cells were incubated for 3-4 at 37 degrees Centigrade, 5% CO2. Negative controls were incubated without radioactive substrate and received the same amount of [^3H] cortisone at the end of the incubation. Formation of [^3H] cortisol was monitored by analyzing 25 microliters of each supernatant in scintillation proximity assay (SPA). (Solly, K.; Mundt, S. S.; Zokian, H. J.; Ding, G. J.; Hermanowski-Vosatka, A.; Strulovici, B.; Zheng, W. Assay Drug Dev. Technol. 2005, 3, 377-384),

microsomal 11β-HSD1 = microsomal 11β-HSD1 (Homo sapiens, UniProt P28845); experiment: Inhibition of microsomal 11β-HSD1, Scintillation Proximity Assay; format: biochemical; conditions: microsomal enzyme, same manner as purified enzyme assay
Protocol: as §1
The inhibition of microsomal 11β-HSD1 was carried out in the same manner.

Measured: IC50

T1 sequence (P28845 whole entry): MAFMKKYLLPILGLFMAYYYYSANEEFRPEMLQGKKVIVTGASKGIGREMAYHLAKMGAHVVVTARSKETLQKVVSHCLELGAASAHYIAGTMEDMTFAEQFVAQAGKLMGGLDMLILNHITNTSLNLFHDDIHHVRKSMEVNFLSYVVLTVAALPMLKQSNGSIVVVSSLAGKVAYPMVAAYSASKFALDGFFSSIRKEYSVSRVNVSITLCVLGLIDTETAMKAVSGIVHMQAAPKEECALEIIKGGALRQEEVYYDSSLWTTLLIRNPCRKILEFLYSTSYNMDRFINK
microsomal 11β-HSD1, sequence (P28845 whole entry): as above
T2 sequence (P28845 whole entry): as above

CN1C(=O)N(C2C3CC4CC(C3)CC2C4)C[C@@H]1C(C)(C)C (stereo partly drawn) [Example 28, (S)-1-(2-adamantyl)-4-tert-butyl-3-methylimidazolidin-2-one]
< 0.05 µM: all assays above
